# Laboratory results as given in patent US6492416B1, “4,5-diaryl-3(2H)-furanone derivatives as cyclooxygenase-2 inhibitors” (Pacific Corporation, priority 1999, dated 2002).
# Key:
# [1] = molecular target: T1, COX-2 (Mus musculus, UniProt Q05769); experiment: Evaluation of COX-2 activity: PGE2 formation in aspirin-treated, LPS-stimulated mouse peritoneal macrophages; format: cell-based
# T1 sequence (Q05769 18-604): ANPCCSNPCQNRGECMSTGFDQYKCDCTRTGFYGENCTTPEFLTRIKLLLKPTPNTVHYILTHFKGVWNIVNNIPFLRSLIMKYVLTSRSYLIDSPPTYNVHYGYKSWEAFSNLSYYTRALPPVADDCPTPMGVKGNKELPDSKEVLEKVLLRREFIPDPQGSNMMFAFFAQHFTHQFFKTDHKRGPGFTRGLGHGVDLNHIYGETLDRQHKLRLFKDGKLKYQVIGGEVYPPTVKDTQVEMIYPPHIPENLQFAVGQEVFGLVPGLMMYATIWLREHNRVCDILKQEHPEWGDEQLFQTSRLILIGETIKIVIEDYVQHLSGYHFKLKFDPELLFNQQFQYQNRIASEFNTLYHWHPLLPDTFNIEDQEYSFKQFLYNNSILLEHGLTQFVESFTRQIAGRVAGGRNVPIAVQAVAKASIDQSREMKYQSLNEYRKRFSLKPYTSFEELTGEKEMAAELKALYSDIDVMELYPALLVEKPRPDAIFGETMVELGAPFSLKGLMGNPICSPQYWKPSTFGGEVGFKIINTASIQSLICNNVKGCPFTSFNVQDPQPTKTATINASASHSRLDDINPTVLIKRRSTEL
# Procedure, shortened: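 PGE2 output, quantified by radio- or enzyme-immunoassay, was read after 10 min exposure of cells to compound with 10 μM arachidonic acid. Cells were mouse peritoneal macrophages, COX-1 knocked out with 500 μM aspirin and COX-2 induced by 10 μg/ml LPS over 16 h. IC50 derived from 4–5 concentrations.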
# [2] = molecular target: T2, COX-1 (Mus musculus, UniProt P22437); experiment: Evaluation of COX-1 activity: PGE2 formation in mouse peritoneal macrophages without aspirin and LPS treatment; format: cell-based
# T2 sequence (P22437 27-602): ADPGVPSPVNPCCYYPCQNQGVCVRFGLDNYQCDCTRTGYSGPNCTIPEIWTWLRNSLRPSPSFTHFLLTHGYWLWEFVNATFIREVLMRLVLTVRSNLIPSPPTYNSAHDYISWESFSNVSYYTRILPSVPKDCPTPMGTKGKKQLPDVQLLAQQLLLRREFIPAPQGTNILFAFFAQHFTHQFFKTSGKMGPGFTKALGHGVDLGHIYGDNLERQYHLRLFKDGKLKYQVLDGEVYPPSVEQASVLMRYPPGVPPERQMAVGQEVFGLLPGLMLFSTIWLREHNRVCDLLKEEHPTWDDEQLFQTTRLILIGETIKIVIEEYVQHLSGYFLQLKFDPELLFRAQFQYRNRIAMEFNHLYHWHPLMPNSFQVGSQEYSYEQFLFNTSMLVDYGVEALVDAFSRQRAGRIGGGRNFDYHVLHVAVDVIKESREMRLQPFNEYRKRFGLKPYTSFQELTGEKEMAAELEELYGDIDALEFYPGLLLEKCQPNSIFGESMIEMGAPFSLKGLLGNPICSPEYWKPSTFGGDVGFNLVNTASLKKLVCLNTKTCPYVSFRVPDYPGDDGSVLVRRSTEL
# Procedure, shortened: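 Peritoneal macrophages from C57BL/6 mice, without aspirin or LPS treatment, were plated at 1×10^6 cells/ml and fixed 2 h at 37 °C. Cells were preincubated 10 min, then given 10 μM arachidonic acid plus compound for 10 min; PGE2 was measured by RIA or EIA. IC50 came from 4–5 concentrations.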
# [3] = Pharmacokinetic studies in rats; format: in vivo, rat; conditions: metabolite in plasma after oral administration of Example 393 to a SD rat at 10 mg/kg body weight (FIG. 1)
# Experimental: An appropriate amount of a compound suspended 1% aqueous methylcellulose solution was administered to a male SD rat by oral gavage. Blood samples were collected from the retro-orbital sinus at designated times over 24˜48 hours. Plasma was separated from each blood sample by centrifugation and the plasma was stored at 4° C. until analysis. The plasma samples prepared thereby were subjected to analysis by reverse phase HPLC (high performance liquid chromatography) using an appropriate internal standard.
smiles,measurement,setting,value
"CC1(C)OC(c2ccc(S(C)(=O)=O)cc2)=C(c2cccc(Cl)c2)C1=O [Example 62, 4-(3-Chlorophenyl)-2,2-dimethyl-5-{4-(methylsulfonyl)phenyl}-3(2H)-furanone]","IC50, μg/ml COX-2",[1],0.01 µg/mL
same,"IC50, μg/ml COX-1",[2],2 µg/mL
same,amounts detected in the plasma,[3],appreciable amounts
same,melting point,,151 to 152 °C
